Experiments:
[1] = target: T1, Cbl-b (Homo sapiens (Human), UniProt Q13191); assay: Cbl-b displacement assay (Cbl-b inhibition assay), Biological Example 8; assay type: binding; conditions: Table 4
Experimental: (§1) Candidate compounds were evaluated for their ability to bind and inhibit Cbl-b, an E3 ubiquitin-protein ligase, as evidenced by their ability to displace a fluorophore-labeled probe bound to Cbl-b.
(§2) The ability of candidate compounds to displace a known inhibitor and thereby inhibit Cbl-b activity was measured by monitoring the interaction of Cbl-b with a fluorophore-labeled probe in the presence of the candidate compound. A truncated variant of Cbl-b (UniProt number Q13191) containing residues 36-427 and an Avitag at its N-terminus was co-expressed with BirA biotin ligase and purified using a standard protocol (see Dou et al., Nature Structural and Molecular Biology 8: 982-987, 2013; Avidity LLC).
Fluorescently-labeled inhibitor probe was synthesized and tagged with BODIPY FL. Cbl-b displacement assays were performed in a 384-well plate at room temperature in a […] by pre-incubating 0.5 nM Cbl-b or 0.125 nM Cbl-b (final concentration, indicated as “High” and “Low,” respectively) in an assay buffer containing 20 mM HEPES pH 7.5, 150 mM NaCl, 0.01% Triton X-100, 0.01% BSA, and 0.5 mM TCEP in the presence of a candidate compound in 1% DMSO (final concentration) for 1 hour. After incubation in the presence of the candidate compound, the plate was incubated for an additional one hour in the presence of an approximate EC40 binding saturation consisting of 150 nM fluorescently-labeled inhibitor probe and 2 nM Streptavidin-Terbium (Cisbio) (final concentrations). Following the one hour incubation, the plates were read for TR-FRET signal at […] using an Envision plate reader (Perkin Elmer).
(§3) The resulting data for the Cbl-b activity assays were analyzed using standard methods to determine the IC50 values for the tested compounds.

[2] = target: T1, Cbl-b; assay: Cbl-b displacement assay (Cbl-b inhibition assay), Biological Example 1; assay type: binding
Outline: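 Avitag-biotinylated human Cbl-b (residues 36–427) at 0.5 nM ("High") or 0.125 nM ("Low") pre-incubated 1 h with compound (1% DMSO) in HEPES pH 7.5/NaCl/Triton/BSA/TCEP, RT. Then 1 h with 150 nM BODIPY FL inhibitor probe (~EC40) plus 2 nM streptavidin-Tb. TR-FRET read at 520/620 nm for probe displacement.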

[3] = system: primary human total T-cells; assay: T-cell activation, CD25 surface staining, Biological Example 13; assay type: cell-based; conditions: anti-CD3 and anti-CD28 co-stimulation, 48 hours, fold change over baseline, Table 8
[4] = system: primary human total T-cells; assay: T-cell activation, IL-2 secretion, Biological Example 13; assay type: cell-based; conditions: 48 hours, fold change over baseline, Table 8; for IL-2 secretion CD3/CD28 0.3 μM / IL-2 secretion CD3/CD28 1 μM: anti-CD3 and anti-CD28 co-stimulation; for IL-2 secretion CD3/CD28 0.3 μM: 0.3 μM inhibitor; for IL-2 secretion CD3/CD28 1 μM / IL-2 secretion CD3 1 μM: 1 μM inhibitor; for IL-2 secretion CD3 1 μM / IL-2 secretion CD3 3 μM: anti-CD3 stimulation alone; for IL-2 secretion CD3 3 μM: 3 μM inhibitor
[5] = system: primary human total T-cells; assay: T-cell activation, IL-2 secretion, Biological Example 2; assay type: cell-based; conditions: 48 hours, fold change over baseline; for fold induction at 0.3 µM: 0.3 μM inhibitor; for fold induction at 1 µM: 1 μM inhibitor; for fold induction at 3 µM: 3 μM inhibitor
[6] = target: T1, Cbl-b; assay: Cbl-b displacement assay (Cbl-b inhibition assay), Biological Example 12; assay type: binding; conditions: Table 7
Experimental: as §1, §2
Fluorescently-labeled inhibitor probe was synthesized and tagged with BODIPY FL. Cbl-b displacement assays were performed in a 384-well plate at room temperature in a […] by pre-incubating 0.5 nM Cbl-b or 0.125 nM Cbl-b (final concentration, indicated as “High” and “Low,” respectively) in an assay buffer containing 20 mM HEPES pH 7.5, 150 mM NaCl, 0.01% Triton X-100, 0.01% BSA and 0.5 mM TCEP in the presence of a candidate compound in 1% DMSO (final concentration) for one hour. After incubation in the presence of the candidate compound, the plate was incubated for an additional one hour in the presence of an approximate EC40 binding saturation consisting of 150 nM fluorescently-labeled inhibitor probe and 2 nM Streptavidin-Terbium (Cisbio) (final concentrations). Following the one hour incubation, the plates were read for TR-FRET signal at […] using an Envision plate reader (Perkin Elmer).
as §3

[7] = system: primary human total T-cells; assay: T-cell activation, CD25 surface staining, Biological Example 9; assay type: cell-based; conditions: anti-CD3 and anti-CD28 co-stimulation, 48 hours, fold change over baseline, Table 5
[8] = system: primary human total T-cells; assay: T-cell activation, CD25 surface staining, Biological Example 2; assay type: cell-based; conditions: 48 hours, fold change over baseline; for fold induction at 0.3 µM: 0.3 μM inhibitor; for fold induction at 1 µM: 1 μM inhibitor; for fold induction at 3 µM: 3 μM inhibitor
[9] = system: primary human total T-cells; assay: T-cell activation, IL-2 secretion, Biological Example 9; assay type: cell-based; conditions: 48 hours, fold change over baseline, Table 5; for IL-2 secretion CD3/CD28 0.3 μM / IL-2 secretion CD3/CD28 1 μM: anti-CD3 and anti-CD28 co-stimulation; for IL-2 secretion CD3/CD28 0.3 μM: 0.3 μM inhibitor; for IL-2 secretion CD3/CD28 1 μM / IL-2 secretion CD3 1 μM: 1 μM inhibitor; for IL-2 secretion CD3 1 μM / IL-2 secretion CD3 3 μM: anti-CD3 stimulation alone; for IL-2 secretion CD3 3 μM: 3 μM inhibitor
[10] = 0.5 nM Cbl-b final concentration (High), read-out: Cbl-b IC50 (High)
[11] = anti-CD3 and anti-CD28 co-stimulation
[12] = anti-CD3 and anti-CD28 co-stimulation, read-out: IL-2 secretion CD3/CD28 1 μM
[13] = anti-CD3 stimulation alone, read-out: IL-2 secretion CD3 1 μM
[14] = anti-CD3 and anti-CD28 co-stimulation, read-out: CD25 staining CD3/CD28 1 μM
[15] = anti-CD3 stimulation alone, read-out: CD25 staining CD3 1 μM
[16] = 0.125 nM Cbl-b final concentration (Low), read-out: Cbl-b IC50 (Low)
[17] = 0.125 nM Cbl-b final concentration (Low), read-out: Cbl-b activity IC50 (Low)

T1 sequence (Q13191 36-427): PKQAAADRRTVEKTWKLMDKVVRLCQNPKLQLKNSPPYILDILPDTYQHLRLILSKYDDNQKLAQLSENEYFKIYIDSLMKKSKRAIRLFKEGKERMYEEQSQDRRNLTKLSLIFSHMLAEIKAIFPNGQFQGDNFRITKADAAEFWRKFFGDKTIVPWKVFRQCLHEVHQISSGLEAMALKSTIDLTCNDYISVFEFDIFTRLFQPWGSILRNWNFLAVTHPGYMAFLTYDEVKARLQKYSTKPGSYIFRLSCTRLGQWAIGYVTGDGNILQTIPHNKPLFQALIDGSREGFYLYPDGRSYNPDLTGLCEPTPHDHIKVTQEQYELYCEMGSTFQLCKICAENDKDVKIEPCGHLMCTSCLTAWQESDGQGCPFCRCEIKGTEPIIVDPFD

| SMILES | IL-2 secretion CD3/CD28 0.3 μM [4] | IL-2 secretion CD3/CD28 1 μM [4] | IL-2 secretion CD3 1 μM [4] | IL-2 secretion CD3 3 μM [4] | fold induction at 0.3 µM [5, 11] | fold induction at 1 µM [5, 12] | fold induction at 1 µM [5, 13] | fold induction at 3 µM ([5]; anti-CD3 stimulation alone) | fold induction at 0.3 µM [8, 11] | fold induction at 1 µM [8, 14] | fold induction at 1 µM [8, 15] | fold induction at 3 µM ([8]; anti-CD3 stimulation alone) | IL-2 secretion CD3/CD28 0.3 μM [9] | IL-2 secretion CD3/CD28 1 μM [9] | IL-2 secretion CD3 1 μM [9] | IL-2 secretion CD3 3 μM [9] | IC50 [1, 16] | IC50 [2, 17] | IC50 [6, 16] | further results |
| --- | --- | --- | --- | --- | --- | --- | --- | --- | --- | --- | --- | --- | --- | --- | --- | --- | --- | --- | --- | --- |
| Cc1cc(C(=O)Nc2cccc([C@]3(Cc4nncn4C)C[C@@H](C#N)C3)c2)nc(C2CC2)n1 [Compound 1, N-(3-((1r,3r)-3-cyano-1-((4-methyl-4H-1,2,4-triazol-3-yl)methyl)cyclobutyl)phenyl)-2-cyclopropyl-6-methylpyrimidine-4-carboxamide] | C (C indicates ≤10 fold) | B (B indicates 11-15 fold) | B (B indicates 0.34-0.66 fold) | B (B indicates 0.34-0.66 fold) | ≤ 15 | ≤ 15 | < 0.4 | < 0.4 | 1.24 to 1.39 | 1.24 to 1.39 | 1 to 1.15 | 1 to 1.15 | C (C indicates <10 fold) | B (B indicates 10-15 fold) | B (B indicates 0.34-0.66 fold) | B (B indicates 0.34-0.66 fold) |  |  |  | IC50 [1, 10]: 1 to 5 nM; IC50 ([2]; 0.5 nM Cbl-b final concentration (High), read-out: Cbl-b activity IC50 (High)): 2 to 5 nM; IC50 ([2]; read-out: IC50 values in the Cbl-b inhibition assay of Biological Example 1): 2 to 5 nM; CD25 staining CD3/CD28 0.3 μM ([3]; 0.3 μM inhibitor): B (B indicates 1.25-1.39 fold); CD25 staining CD3/CD28 1 μM ([3]; 1 μM inhibitor): B (B indicates 1.25-1.39 fold); IC50 [6, 10]: 1 to 5 nM; CD25 staining CD3/CD28 0.3 μM ([7]; 0.3 μM inhibitor): B (B indicates 1.25-1.39 fold); CD25 staining CD3/CD28 1 μM ([7]; 1 μM inhibitor): B (B indicates 1.25-1.39 fold) |
| Cn1cnnc1C[C@]1(c2cccc(N3Cc4c(cc(CN[C@H]5CCC(F)(F)C5)cc4C(F)(F)F)C3=O)c2)C[C@H](C#N)C1 [Compound 20, (1R3r)-3-(3-(6-((((S)-3,3-difluorocyclopentyl)amino)methyl)-1-oxo-4-(trifluoromethyl)isoindolin-2-yl)phenyl)-3-((4-methyl-4H-1,2,4-triazol-3-yl)methyl)cyclobutane-1-carbonitrile] | A (A indicates >15 fold) | A (A indicates >15 fold) | A (A indicates >0.66 fold) | A (A indicates >0.66 fold) | > 20 | > 20 | > 0.85 | > 0.85 | > 1.39 | > 1.39 | > 1.15 | > 1.15 | A (A indicates >15 fold) | A (A indicates >15 fold) | A (A indicates >0.66 fold) | A (A indicates >0.66 fold) | < 1 nM | < 1 nM | < 1 nM |  |
| Cn1cnnc1C[C@]1(c2cccc(N3Cc4c(cc(CN[C@@H]5CCC(F)(F)C5)cc4C(F)(F)F)C3=O)c2)C[C@H](C#N)C1 [Compound 21, (1R,3r)-3-(3-(6-((((R)-3,3-difluorocyclopentyl)amino)methyl)-1-oxo-4-(trifluoromethyl)isoindolin-2-yl)phenyl)-3-((4-methyl-4H-1,2,4-triazol-3-yl)methyl)cyclobutane-1-carbonitrile] | A (A indicates >15 fold) | A (A indicates >15 fold) | A (A indicates >0.66 fold) | A (A indicates >0.66 fold) | > 20 | > 20 | > 0.85 | > 0.85 | > 1.39 | > 1.39 | > 1.15 | > 1.15 | A (A indicates >15 fold) | A (A indicates >15 fold) | A (A indicates >0.66 fold) | A (A indicates >0.66 fold) | < 1 nM | < 1 nM | < 1 nM |  |
| C[C@@H]1CN(Cc2cc(C(=O)Nc3cccc([C@]4(Cc5nncn5C)C[C@@H](C#N)C4)c3)nc(C3CC3)c2)CCO1 [Compound 56, N-(3-((1r,3R)-3-cyano-1-((4-methyl-4H-1,2,4-triazol-3-yl)methyl)cyclobutyl)phenyl)-6-cyclopropyl-4-(((R)-2-methylmorpholino)methyl)picolinamide] | A (A indicates >15 fold) | A (A indicates >15 fold) | A (A indicates >0.66 fold) | A (A indicates >0.66 fold) | 15 to 20 | > 20 | 0.4 to 0.85 | 0.4 to 0.85 | ≤ 1.24 | ≤ 1.24 | 1 to 1.15 | 1 to 1.15 | A (A indicates >15 fold) | A (A indicates >15 fold) | A (A indicates >0.66 fold) | A (A indicates >0.66 fold) | < 1 nM | < 1 nM | < 1 nM |  |
